Like-named read-outs stand apart in the source and are kept apart here.
How the values were obtained:
Assay in all cases: frontal affinity chromatography (FAC)
congerin II (ConII) = biological target: T1, congerin II (ConII) (Conger myriaster, UniProt Q9YIC2); format: binding
T1 construct: full length, 135 residues (natural form N-acetylated); proto-type galectin, dimer
Excerpt: frontal affinity chromatography (FAC) on congerin II (ConII)

[1] = biological target: T2, Con-anc (probable ancestral form of congerins); format: binding, synthetic construct; details: labelled compound (pyridylaminated sugar)
T2 construct: recombinant from plasmid pTV-Con-anc in Escherichia coli JM109; differs from ConI at 31 residues; purified by HCl-treated Sepharose 4B and HiTrap Q
Excerpt: frontal affinity chromatography (FAC) on Con-anc (probable ancestral form of congerins)

congerin I (ConI) = biological target: T3, congerin I (ConI) (Conger myriaster, UniProt P26788); format: binding
T3 construct: full length, 136 residues (natural form N-acetylated); proto-type galectin, dimer
Excerpt: frontal affinity chromatography (FAC) on congerin I (ConI)

[2] = labelled compound (pyridylaminated sugar)

T3 sequence (P26788 whole entry): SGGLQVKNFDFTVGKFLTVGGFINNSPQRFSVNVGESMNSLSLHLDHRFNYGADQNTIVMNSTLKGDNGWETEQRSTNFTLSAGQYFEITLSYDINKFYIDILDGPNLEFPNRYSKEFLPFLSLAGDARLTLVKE
T1 sequence (Q9YIC2 2-136): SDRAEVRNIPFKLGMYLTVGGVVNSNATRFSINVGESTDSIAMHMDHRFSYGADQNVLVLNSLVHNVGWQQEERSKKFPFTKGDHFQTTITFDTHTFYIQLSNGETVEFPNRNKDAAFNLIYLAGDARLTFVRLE

Compound	Kd (congerin II (ConII); [2])	Kd [1]	Kd (congerin II (ConII))	Kd ([1]; read-out: Con-anc-L5 / Kd)	Kd (congerin I (ConI))	Kd ([1]; read-out: Con-anc-N/C/L5 / Kd)	Kd (congerin I (ConI); [2])
CC(=O)N[C@H]1[C@H]([C@H](O)[C@H](O)CO)OC(O[C@H]2[C@@H](O)[C@@H](CO)O[C@@H](O[C@@H]([C@H](O)[C@@H](O)CNc3ccccn3)[C@H](O)CO)[C@@H]2O)(C(=O)O)C[C@@H]1O (stereo partly drawn) [compound 29]	51 µM	242 µM	–	–	–	–	–
CC(=O)N[C@H]1[C@H](O[C@H]2[C@@H](O)[C@@H](CO)O[C@@H](O[C@@H]([C@H](O)[C@@H](O)CNc3ccccn3)[C@H](O)CO)[C@@H]2O)O[C@H](CO)[C@@H](O[C@@H]2O[C@@H](C)[C@@H](O)[C@@H](O)[C@@H]2O)[C@@H]1O[C@@H]1O[C@H](CO)[C@H](O)[C@H](O)[C@H]1O [compound 44]	–	55 µM	24 µM	3.9 µM	4.4 µM	–	–
GM3 (NeuGc) [compound 30]	66 µM	196 µM	–	–	–	–	–

Next, values leading:

Kd (congerin II (ConII); [2])	Kd [1]	Kd (congerin II (ConII))	Kd ([1]; read-out: Con-anc-L5 / Kd)	Kd (congerin I (ConI))	Kd ([1]; read-out: Con-anc-N/C/L5 / Kd)	Kd (congerin I (ConI); [2])	Compound
–	171 µM	122 µM	–	13 µM	–	–	CC(=O)N[C@H]1[C@H](O[C@H]2[C@@H](O)[C@@H](CO)O[C@@H](O[C@@H]([C@H](O)[C@@H](O)CNc3ccccn3)[C@H](O)CO)[C@@H]2O)O[C@H](CO)[C@@H](O[C@@H]2O[C@H](CO)[C@H](O)[C@H](O)[C@H]2O)[C@@H]1O[C@@H]1O[C@@H](C)[C@@H](O)[C@@H](O)[C@@H]1O [compound 45, LNFP-III]
–	44 µM	37 µM	–	9.4 µM	–	–	CC(=O)N[C@H]1[C@H](O[C@H]2[C@@H](O)[C@@H](CO)O[C@@H](O[C@@H]([C@H](O)[C@@H](O)CNc3ccccn3)[C@H](O)CO)[C@@H]2O)O[C@H](CO)[C@@H](O[C@@H]2O[C@@H](C)[C@@H](O)[C@@H](O)[C@@H]2O)[C@@H]1O[C@@H]1O[C@H](CO)[C@H](O)[C@H](O)[C@H]1O[C@@H]1O[C@@H](C)[C@@H](O)[C@@H](O)[C@@H]1O [compound 46]
42 µM	56 µM	–	–	–	2.5 µM	17 µM	A-heptasaccharide [compound 48]

Source: PMC2843614, “Protein engineering of conger eel galectins by tracing of molecular evolution using probable ancestral mutants” (BMC Evolutionary Biology, 2010)
